The source of these data is US4618677A, “Substituted phenylalkyl-(piperazinyl or homopiperazinyl)alkyl-thiols and -thiocarbamates useful for the treatment of immunological, inflammatory, and allergic disorders” (Boehringer Ingelheim Limited, priority 1984, dated 1986).

“And” between values parts separate entries of the source, which are not always exact repeats. Equal entries are not always repeated. Structures can show the parent of a compound that is named as a salt.

The test system of the first experiment is human leukocytes (basophils). Briefly: Inhibition of IgE-mediated histamine release from human leukocytes (basophils), Procedure A. As to conditions: Homo sapiens, Leukocyte, 1 h, read-out: In Vitro Inhibition of Histamine Release IC50 (μM) Procedure A. Format: cell-based.
Protocol: A. Procedure for Determining Inhibition of Histamine Release from Human Leukocytes (Basophils)
Separation of Leukocytes: A modification of the method of L. Lichtenstein and A. Osler, J. Exp. Med. 120, 507 (1964) is used. Heparinized human blood (80-100 ml) is mixed with 20 ml of saline (0.2%) containing 0.6 gm of dextrose and 1.2 gm of dextran in propylene centrifuge tubes. The mixture is kept at ambient temperature for 60-90 minutes to allow the separation of erythrocytes from the platelet-leukocyte-rich supernate. The supernate is removed and centrifuged for 8 minutes at 110 ×g in cold. The leukocyte pellet is washed twice with Tris buffer and finally suspended in 150-180 ml Tris-ACM buffer at 1-2 ×10^6 cells/ml.
Reaction Mixture: The reaction is carried out in 12×75 mm plastic tubes at a total volume of 1.23 ml. The reaction medium includes 0.05 ml rabbit anti-human IgE (the antigen), 0.2 ml of the test compound in water at concentrations ranging from 10-100 μM, and 1.0 ml of the leukocyte suspension. The reaction mixture is incubated in a 37° C. shaking water bath for 60 minutes. Upon completion of the reaction, the tubes are centrifuged and the supernatants collected. The protein is removed from the supernatants by precipitation with 0.2 ml of 8% perchloric acid.
Histamine Assay: Histamine release is measured by the automated fluorometric method of W. Siraganian and W. Hook in Chapter 102 of the Manual of Clinical Immunology, 2nd Edition, edited by R. Rose and H. Friedman, published by the American Society for Microbiology, Washington, D.C., 1980. Percent inhibition is calculated as follows: [formula]
The concentration which causes a 50 percent inhibition (IC50) of histamine release is interpolated from a plot of percent inhibition versus logarithm of drug concentration.
Broadly, the IC50 is the midpoint of a concentration-inhibition curve. `SCCCN1CCN(Cc2ccccc2)CC1` [Example 1, 3-(4-Benzylpiperazin-1-yl)propanethiol dihydrochloride]: the IC50 was 140 µM. Turning to `Cc1ccc(CN2CCN(CCCS)CC2)cc1` [Example 17, 3-[4-(4-Methylbenzyl)piperazin-1-yl]propanethiol dihydrochloride], the IC50 was found to be 24 µM.

For the compound `SCCCN1CCN(Cc2ccc(Cl)cc2)CC1` [Example 3, 3-[4-(4-Chlorobenzyl)piperazin-1-yl]propanethiol dihydrochloride], the IC50 amounted to 4 µM.

Staying with this experiment, now noted: Leukocyte, 1 h; from human basophils; rabbit anti-human IgE as antigen; 60 min at 37° C.; > = no response detected at highest dose indicated; read-out: In Vitro Inhibition of Histamine Release IC50 (μM) Procedure A.
Turning to `O=C(Nc1ccccc1)SCCCN1CCN(Cc2ccccc2)CC1` [Example 2, N-Phenyl-S-[3-(4-benzylpiperazin-1-yl)propyl]thiocarbamate dihydrochloride monohydrate], the IC50 is 310 µM. Same read-out and setting: the same measure for `Cc1ccc(CN2CCN(CCCSC(=O)Nc3ccccc3)CC2)cc1` [Example 18, N-Phenyl-S-{3-[4-(4-methylbenzyl)piperazin-1-yl]propyl}thiocarbamate dihydrochloride sesquihydrate]: greater than 1000 µM. On the same count and under the same terms, the same measure for `SCCCN1CCCN(Cc2ccc(Cl)cc2)CC1` [Example 45, 3-[4-(4-Chlorobenzyl)homopiperazin-1-yl]propanethiol]: 3 µM; for `O=C(Nc1ccc(Cl)cc1)SCCCN1CCN(Cc2ccc(Cl)cc2)CC1` [Example 10, N-(4-Chlorophenyl)-S-{3-[4-(4-chlorobenzyl)piperazin-1-yl]propyl}thiocarbamate dihydrochloride monohydrate]: 47 µM. The same measure, in the same setting: the same measure for `O=C(Nc1ccc(F)cc1)SCCCN1CCN(Cc2ccc(Cl)cc2)CC1` [Example 9, N-(4-Fluorophenyl)-S-{3-[4-(4-chlorobenzyl)piperazin-1-yl]propyl}thiocarbamate dihydrochloride]: 11 µM. As for `CCCCc1ccc(NC(=O)SCCCN2CCN(Cc3ccc(Cl)cc3)CC2)cc1` [Example 8, N-(4-n-Butylphenyl)-S-{3-[4-(4-chlorobenzyl)piperazin-1-yl]propyl}thiocarbamate dihydrochloride], the IC50 is 760 µM. On the same count and under the same terms, the same measure for `COc1cccc(NC(=O)SCCCN2CCN(Cc3ccc(Cl)cc3)CC2)c1` [Example 13, N-(3-Methoxyphenyl)-S-{3-[4-(4-chlorobenzyl)piperazin-1-yl]propyl}thiocarbamate dihydrochloride]: 140 µM. On the same count and under the same terms, the same measure for `O=C(Nc1ccccc1)SCCCN1CCN(c2ccc(F)cc2)CC1` [Example 35, N-Phenyl-S-{3-[4-(4-fluorophenyl)piperazin-1-yl]propyl}thiocarbamate dihydrochloride]: greater than 1000 µM; for `COc1ccc(NC(=O)SCCCN2CCN(CCCc3ccc(Cl)cc3)CC2)cc1` [Example 39, N-(4-Methoxyphenyl)-S-{3-[4-[3-(4-chlorophenyl)propyl]piperazin-1-yl]propyl]thiocarbamate dihydrochloride hemihydrate]: 13 µM.

Consider `CC1CN(Cc2ccc(Cl)cc2)C(C)CN1CCCSC(=O)Nc1ccccc1` (stereo not drawn) [Example 20, N-Phenyl-S-{3-[4-(4-chlorobenzyl)-2,5-dimethylpiperazin-1-yl]propyl}thiocarbamate dihydrochloride], for which the IC50 is greater than 1000 µM. Turning to `O=C(Nc1ccc(Cl)c(Cl)c1)SCCCN1CCN(Cc2ccc(Cl)cc2)CC1` [Example 11, N-(3,4-Dichlorophenyl)-S-{3-[4-(4-chlorobenzyl)piperazin-1-yl]propyl}thiocarbamate dihydrochloride], the half-inhibitory concentration (IC50) is greater than 1000 µM.

On to `O=C(Nc1ccccc1)SCCN1CCN(Cc2ccc(Cl)cc2)CC1` [Example 37, N-phenyl-S-{2-[4-(4-chlorobenzyl)piperazin-1-yl]ethyl}thiocarbamate dihydrochloride], for which the 50% inhibitory concentration (IC50) is 3 µM. Same read-out and setting: next, `CCCCc1ccc(NC(=O)SCCCN2CCN(CCc3ccc(Cl)cc3)CC2)cc1` [Example 27, N-(4-n-Butylphenyl)-S-{3-[4-(4-chlorophenethyl)piperazin-1-yl]propyl}thiocarbamate dihydrochloride]: 30 µM; `COc1cc(NC(=O)SCCCN2CCN(CCc3ccc(Cl)cc3)CC2)cc(OC)c1OC` [Example 29, N-(3,4,5-Trimethoxyphenyl)-S-{3-[4-(4-chlorophenethyl)piperazin-1-yl]propyl}thiocarbamate dihydrochloride]: 9 µM. Consider `CCCCCCNC(=O)SCCCN1CCN(Cc2ccc(Cl)cc2)CC1` [Example 40, N-(n-Hexyl)-S-{3-[4-(4-chlorobenzyl)piperazin-1-yl]propyl}thiocarbamate dihydrochloride], for which the IC50 was found to be 71 µM. With `O=C(Nc1ccccc1)SCCCN1CCN(CCc2ccc(Cl)cc2)CC1` [Example 26, N-Phenyl-S-{3-[4-(4-chlorophenethyl)piperazin-1-yl]propyl}thiocarbamate dihydrochloride monohydrate], the half-inhibitory concentration (IC50) was found to be 25 µM. Consider `CCCCCCNC(=O)SCCCN1CCCN(Cc2ccc(Cl)cc2)CC1` [Example 46, N-(n-Hexyl)-S-{3-[4-(4-chlorobenzyl)homopiperazin-1-yl]propyl}thiocarbamatedihydrochloride], for which the half-inhibitory concentration (IC50) worked out at 12 µM.

For `CC(c1ccccc1)N1CCN(CCCSC(=O)Nc2ccccc2)CC1` (stereo not drawn) [Example 22, N-Phenyl-S-{3-[4-(1-phenylethyl)piperazin-1-yl]propyl}thiocarbamate dihydrochloride dihydrate], the IC50 was determined as 67 µM. `CCCCCCNC(=O)SCCCN1CCN(CC=Cc2ccccc2)CC1` [Example 44, N-(n-Hexyl)-S-[3-(4-cinnamylpiperazin-1-yl)propyl]thiocarbamate dihydrochloride]: the 50% inhibitory concentration (IC50) is greater than 1000 µM. Still for that read-out and setting: the same measure for `COc1ccccc1NC(=O)SCCCN1CCN(Cc2ccc(Cl)cc2)CC1` [Example 12, N-(2-Methoxyphenyl)-S-{3-[4-(4-chlorobenzyl)piperazin-1-yl]propyl}thiocarbamate dihydrochloride sesquihydrate]: greater than 300 µM; for `O=C(Nc1ccccc1)SCCCN1CCN(CCc2ccccc2)CC1` [Example 24, N-Phenyl-S-[3-(4-phenethylpiperazin-1-yl)propyl]thiocarbamate dihydrochloride monohydrate]: greater than 1000 µM; for `CC(C)(C)NC(=O)SCCCN1CCN(Cc2ccc(Cl)cc2)CC1` [Example 47, N-(t-Butyl)-S-{3-[4-(4-chlorobenzyl)piperazin-1-yl]propyl}thiocarbamate dihydrochloride sesquihydrate]: 58 µM.

Still in this experiment, the particulars now being: from human basophils; rabbit anti-human IgE as antigen; 60 min at 37° C.; > = no response detected at highest dose indicated.
Take `CNC(=O)SCCCN1CCN(Cc2ccc(Cl)cc2)CC1` [Example 4, N-Methyl-S-{3-[4-(4-chlorobenzyl)piperazin-1-yl]propyl}thiocarbamate dihydrochloride]: the “In Vitro Inhibition of Histamine Release IC50 (μM) Procedure A” value is given as “Int”. On to `CC(C)NC(=O)SCCCN1CCN(Cc2ccc(Cl)cc2)CC1` [Example 5, N-Isopropyl-S-{3-[4-(4-chlorobenzyl)piperazin-1-yl]propyl}thiocarbamate dihydrochloride], for which the “In Vitro Inhibition of Histamine Release IC50 (μM) Procedure A” value is reported as “Int”.

For another experiment, the target named is T1, histamine (H1) receptor (Cavia porcellus, UniProt P31389).
T1 construct: contraction of isolated guinea pig ileum; from tissue; host or cells: isolated guinea pig ileum
T1 sequence (P31389 whole entry): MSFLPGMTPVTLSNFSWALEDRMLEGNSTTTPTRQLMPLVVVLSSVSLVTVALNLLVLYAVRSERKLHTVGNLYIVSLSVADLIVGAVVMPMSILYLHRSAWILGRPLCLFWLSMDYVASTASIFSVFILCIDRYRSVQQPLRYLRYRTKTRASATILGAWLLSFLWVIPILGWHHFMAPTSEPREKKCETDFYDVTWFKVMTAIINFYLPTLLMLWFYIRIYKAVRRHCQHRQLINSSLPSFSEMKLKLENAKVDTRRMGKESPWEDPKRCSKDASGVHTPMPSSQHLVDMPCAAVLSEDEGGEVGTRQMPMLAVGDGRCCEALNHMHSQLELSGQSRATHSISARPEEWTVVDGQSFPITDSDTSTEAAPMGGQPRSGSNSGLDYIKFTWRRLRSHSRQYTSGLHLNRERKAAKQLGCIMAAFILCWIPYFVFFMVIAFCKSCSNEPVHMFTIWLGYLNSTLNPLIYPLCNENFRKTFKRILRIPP
Kind of experiment: Antagonism of histamine-induced contraction of isolated guinea pig ileum. The following applies: histamine final concentration 0.2 μg/ml, 50% reduction of contractile response, read-out: Inhibition IC50 (μM) of histamine-induced contraction. The format is tissue-based. An excerpt: Certain compounds of formula I inhibit in vitro the histamine-induced contraction of isolated guinea pig ileum and are useful in warm-blooded animals for antagonizing the action of histamine at the histamine (H1) receptor. Accordingly, these compounds can be employed in a conventional manner as antihistamine agents for the treatment of allergic disorders, for example allergic rhinitis, vasomotor rhinitis, allergic conjunctivitis, hay fever, urticaria, and food allergies.
The antagonism of the effects of histamine on the contraction of isolated guinea pig ileum by the compounds of formula I can be determined by the procedure of G. Possanza, A. Bauen, and P. Stewart, Int. Arch. Allergy Appl. Immunol., 49, 289 (1975). The degree of inhibition is determined as the difference between the contraction caused by histamine (final concentration 0.2 μg/ml) alone and that seen in the presence of both histamine and the test compound. The inhibitory activity of the test compound is expressed as that concentration of the compound which causes a 50% reduction of the contractile response (IC50).
On to `O=C(Nc1ccc(F)cc1)SCCCN1CCN(Cc2ccc(Cl)cc2)CC1` [Example 9, N-(4-Fluorophenyl)-S-{3-[4-(4-chlorobenzyl)piperazin-1-yl]propyl}thiocarbamate dihydrochloride], for which the half-inhibitory concentration (IC50) stood at 0.12 µM. Same read-out and setting: next, `CNC(=O)SCCCN1CCN(Cc2ccc(Cl)cc2)CC1` [Example 4, N-Methyl-S-{3-[4-(4-chlorobenzyl)piperazin-1-yl]propyl}thiocarbamate dihydrochloride]: 0.19 µM; `COc1ccc(NC(=O)SCCCN2CCN(Cc3ccc(Cl)cc3)CC2)cc1` [Example 14, N-(4-Methoxyphenyl)-S-{3-[4-(4-chlorobenzyl)piperazin-1-yl]propyl}thiocarbamate dihydrochloride monohydrate]: 0.12 µM. For `COc1cc(NC(=O)SCCCN2CCN(CCc3ccc(Cl)cc3)CC2)cc(OC)c1OC` [Example 29, N-(3,4,5-Trimethoxyphenyl)-S-{3-[4-(4-chlorophenethyl)piperazin-1-yl]propyl}thiocarbamate dihydrochloride], the IC50 was 0.18 µM. Still for that read-out and setting: next, `O=C(Nc1ccccc1)SCCCN1CCN(CCc2ccc(Cl)cc2)CC1` [Example 26, N-Phenyl-S-{3-[4-(4-chlorophenethyl)piperazin-1-yl]propyl}thiocarbamate dihydrochloride monohydrate]: 0.06 µM; `CC(C)NC(=O)SCCCN1CCN(Cc2ccc(Cl)cc2)CC1` [Example 5, N-Isopropyl-S-{3-[4-(4-chlorobenzyl)piperazin-1-yl]propyl}thiocarbamate dihydrochloride]: 0.21 µM and 0.3 µM.
